Laboratory results from patent publication US20250304623A1, “PEPTIDES FOR INTRACELLULAR DELIVERY” (UNIVERSIDADE DE SANTIAGO DE COMPOSTELA, priority 2022, published 2025).
*: point of attachment. NHNH2 = NN*

Key:
[1] = test system: HCT116 cells expressing EGFP; assay: EGFP-targeting siRNA delivery (GFP silencing vs siMOCK), HCT116; assay type: cell-based
Experimental: (§1) To generate an EGFP expressing HeLa cell line, HeLa cells were transfected with EGFP pDNA (pEGFP-C1, Clontech) and stable transfectants were selected with 400 μg/mL of G-418 (Millipore). Green clones were selected by epifluorescence microscopy and tested for EGFP expression stability through several passages. […] All other EGFP-expressing cell lines were obtained in a similar way from parent non-EGFP-expressing cell lines.
Cells expressing EGFP were seeded in a 96 well plate the day before the experiment at a concentration of 50,000 cell/mL (100 μL/w) in DMEM+10% FBS+1% Gln-Abt. For robotic library screening, the delivery of an EGFP-targeting siRNA (EGFP: enhanced green fluorescent protein, Ambion® Silencer® GFP Positive Control siRNA (siGFP) (AM4626)) in six different cell lines expressing EGFP was performed. Amphiphilic molecules stock solutions in DMSO were diluted with DMEM and freshly mixed with siRNA stock solutions in DMEM prior to transfection experiments, to afford several complexes at different amphiphile concentration (2-10 μM) while maintaining a constant final siRNA concentration of 30 nM. The mixture was shaken for 30 min at room temperature (rt) before the addition to the cells. The cell medium was aspirated, and cells were washed twice with PBS. Finally, 50 μL of the solution of siRNA/amphiphile complexes were added to the cells and incubated for 4 h. After transfection, the medium was replaced by 100 μL of fresh DMEM supplemented with 10% FBS. The fluorescence knockdown was quantified after 72 h in a plate reader, by comparison with cells transfected with a non-targeting siRNA control (siMOCK, Silencer™ Negative Control No. 1 siRNA (siMOCK) (AM4611)). EGFP knockdown was compared with Lipofectamine® RNAiMAX silencing efficiency (30-60% depending on cell line, defined with a numeric value in the below tables). All experiments were done in triplicate.
(§2) Tables 1-7: RLuc (pDNA) or EGFP (mRNA) expression levels were normalized to Lipofectamine reagents (value=1) and expressed as fold-times signal increase. In the case of siRNA, the siRNA treated cells fluorescence was compared with siMOCK control fluorescence, while Cas9-RNP mediated knockout was measured against the fluorescence of untreated cells. In both siRNA and Cas9-RNP, values are expressed as % fluorescence reduction. Amphiphile concentration was 5 μM in all cases. All experiments were performed in triplicate.
Tables 20-25 show the mean (triplicates) percentage of GFP-silencing, accounted by fluorescence intensity decrease relative to a non-targeting siRNA (siMOCK) control, measured after the transfection of siRNA by different amphiphiles at different concentrations in a variety of cell lines. Background values, accounted by untreated control cells, were subtracted for processing.

[2] = test system: Hela cells expressing EGFP; assay: Cas9-RNP delivery against EGFP (gene editing, plate reader), HeLa; assay type: cell-based; details: for % GFP silencing due to gene editing (Cas9-RNP): HeLa
Experimental: as §1
Cells expressing EGFP were seeded in a 96 well plate the day before the experiment at a concentration of 50,000 cell/mL (100 μL/w) in DMEM+10% FBS+1% Gln-Abt. For robotic library screening, the delivery of Cas9-RNP against EGFP (RNP designed to knock-out the gene encoding for the enhanced green fluorescent protein (EGFP)) was performed. For RNP assembly, 9.2 μL of crRNA and 9.2 μL of tracrRNA were mixed in 211.6 μL of Nuclease-Free Duplex Buffer (IDT), incubated for 5 min at 95° C. and slowly cooled at rt (see I. Lostalé-Seijo, et al. Peptide/Cas9 nanostructures for ribonucleoprotein cell membrane transport and gene edition, Chem. Sci., 2017). Cas9 protein was dissolved in DMEM at a final concentration of 4 μM and equal volumes of the RNA complex and Cas9 were mixed and incubated for 5 min at rt. 75 μL of the corresponding amphiphile concentrations were added to 5 μL of RNP at 2 μM. The mixture was shaken for 30 min at room temperature before the addition to the cells. The cell medium was aspirated, and cells were washed twice with PBS. Cells were covered with 30 μL of DMEM and 20 μL of the RNP/amphiphile complexes were added to the cells (final peptide concentrations=2.5, 5 and 10 μM; final Cas9-RNP concentration=50 nM) and incubated for 4 h. After the incubation, the medium was replaced by 100 μL of fresh DMEM supplemented with 10% FBS. The total EGFP fluorescence was quantified after 72 h in a plate reader (FIG. 2, Table 1 (right) and Table 6). All experiments were done in triplicate.
as §2
Tables 26-31 show the mean (triplicates) percentage of gene editing, accounted by GFP fluorescence intensity decrease (% of reduction), measured after the transfection of Cas9-RNP by different amphiphiles at different concentrations in a variety of cell lines. Background values, accounted by untreated control cells, were subtracted for processing.

[3] = Petroselinyl, 15 μM, Hela cells

| Substance | percentage of GFP-silencing relative to siMOCK ([1]; Myristoleyl, 15 μM) [%] | percentage of GFP-silencing relative to siMOCK ([1]; Oleyl, 10 μM) [%] | percentage of GFP-silencing relative to siMOCK ([1]; Oleyl, 15 μM) [%] | percentage of GFP-silencing relative to siMOCK ([1]; Petroselinyl, 15 μM) [%] | percentage of gene editing, GFP fluorescence intensity decrease (% of reduction) ([2]; Dodecanal, 5 μM, Hela cells) [%] | percentage of gene editing, GFP fluorescence intensity decrease (% of reduction) ([2]; Dodecanal, 10 μM, HeLa cells) [%] | percentage of gene editing, GFP fluorescence intensity decrease (% of reduction) ([2]; Dodecanal, 15 μM, Hela cells) [%] | percentage of gene editing, GFP fluorescence intensity decrease (% of reduction) ([2]; Myristoleyl, 5 μM, HeLa cells) [%] | percentage of gene editing, GFP fluorescence intensity decrease (% of reduction) ([2]; Oleyl, 10 μM, HeLa cells) [%] | percentage of gene editing, GFP fluorescence intensity decrease (% of reduction) ([2]; Palmitoleyl, 10 μM, HeLa cells) [%] | percentage of gene editing, GFP fluorescence intensity decrease (% of reduction) ([2]; Palmitoleyl, 15 μM, Hela cells) [%] | percentage of gene editing, GFP fluorescence intensity decrease (% of reduction) [2, 3] [%] | percentage of GFP-silencing relative to siMOCK ([1]; Dodecanal, 5 μM) [%] | percentage of GFP-silencing relative to siMOCK ([1]; Dodecanal, 10 μM) [%] | percentage of GFP-silencing relative to siMOCK ([1]; Dodecanal, 15 μM) [%] | percentage of GFP-silencing relative to siMOCK ([1]; Oleyl, 5 μM) [%] | percentage of gene editing, GFP fluorescence intensity decrease (% of reduction) ([2]; Oleyl, 5 μM, HeLa cells) [%] | further results |
| --- | --- | --- | --- | --- | --- | --- | --- | --- | --- | --- | --- | --- | --- | --- | --- | --- | --- | --- |
| Ac-RRLK*RLLRRLK*RLK*RRL-NH2 (Ac-RRLK(NHNH2)RLLRRLK(NHNH2)RLK(NHNH2)RRL-NH2; not fully specified; printed as Ac-RRLK*RLLRRLK*RLK*RRL-NH2; also: K*4,K*11,K*14: native or modified lysine (ε-amide to a linker)) [Peptide 17.3] | 78 | 44 | 64 | 66 | 81 | 87 | 78 | 57 | 90 | 90 | 88 | 87 | – | – | – | – | – | percentage of gene editing, GFP fluorescence intensity decrease (% of reduction) ([2]; Oleyl, 15 μM, Hela cells): 82%; percentage of gene editing, GFP fluorescence intensity decrease (% of reduction) ([2]; Palmitoleyl, 5 μM, HeLa cells): 35%; percentage of gene editing, GFP fluorescence intensity decrease (% of reduction) ([2]; Petroselinyl, 5 μM, HeLa cells): 48% |
| Ac-RK*LRRK*LRK*-NH2 (Ac-RK(NHNH2)LRRK(NHNH2)LRK(NHNH2)-NH2; not fully specified; printed as Ac-RK*LRRK*LRK*-NH2; also: K*2,K*6,K*9: native or modified lysine (ε-amide to a linker)) [Peptide 9.3] | 13 | – | 54 | 33 | 25 | 61 | 80 | 14 | 26 | 44 | 77 | 77 | 33 | 33 | 48 | 35 | 11 | percentage of GFP-silencing relative to siMOCK ([1]; Myristoleyl, 10 μM): 40%; percentage of GFP-silencing relative to siMOCK ([1]; Palmitoleyl, 10 μM): 25%; percentage of GFP-silencing relative to siMOCK ([1]; Palmitoleyl, 15 μM): 45%; % GFP silencing due to gene editing (Cas9-RNP) ([2]; 5 μM, Dod tail): 80%; % GFP silencing due to gene editing (Cas9-RNP) ([2]; 5 μM, Pal tail): 77%; percentage of gene editing, GFP fluorescence intensity decrease (% of reduction) ([2]; Myristoleyl, 15 μM, Hela cells): 81%; percentage of gene editing, GFP fluorescence intensity decrease (% of reduction) ([2]; Petroselinyl, 10 μM, Hela cells): 49% |
| Ac-RRLK*RLLRRLK*RL-NH2 (Ac-RRLK(NHNH2)RLLRRLK(NHNH2)RL-NH2; not fully specified; printed as Ac-RRLK*RLLRRLK*RL-NH2; also: K*4,K*11: native or modified lysine (ε-amide to a linker)) [Peptide 13.2] | – | 43 | 10 | – | – | – | – | – | 62 | – | – | – | 25 | 41 | 18 | 45 | 21 | – |
